Experimental data published in BindingDB's records for doi:10.1021/jm960274q (Basf, 1996).

Molecular target: Endothelin receptor type B (Cavia porcellus)
Assay: Binding affinity towards Endothelin B receptor by measuring its ability to displace [125I]ET-3 from guinea pig cerebellum

Ki | Compound
1800 nM | COc1cc(OC)nc(OC(C(=O)O)C(OC)(c2cccc(F)c2)c2cccc(F)c2)n1 (centres undefined) [2-(4,6-Dimethoxy-pyrimidin-2-yloxy)-3,3-bis-(3-fluoro-phenyl)-3-methoxy-propionic acid]
1300 nM | COc1cc(OC)nc(OC(C(=O)O)C(OC)(c2cccc(C)c2)c2cccc(C)c2)n1 (centres undefined) [2-(4,6-Dimethoxy-pyrimidin-2-yloxy)-3-methoxy-3,3-di-m-tolyl-propionic acid]
1000 nM | COc1cc(OC)nc(OC(C(=O)O)C(OC)(c2ccc(C)cc2)c2ccc(C)cc2)n1 (centres undefined) [2-(4,6-Dimethoxy-pyrimidin-2-yloxy)-3-methoxy-3,3-di-p-tolyl-propionic acid]
1300 nM | COc1cc(OC)nc(OC(C(=O)O)C(OC)(c2ccc(Cl)cc2)c2ccc(Cl)cc2)n1 (centres undefined) [3,3-Bis-(4-chloro-phenyl)-2-(4,6-dimethoxy-pyrimidin-2-yloxy)-3-methoxy-propionic acid]

Continued, compound first:

Compound | Ki
CCOc1cc(OCC)nc(OC(C(=O)O)C(OC)(c2ccccc2)c2ccccc2)n1 (centres undefined) [2-(4,6-Diethoxy-pyrimidin-2-yloxy)-3-methoxy-3,3-diphenyl-propionic acid] | 2500 nM
COc1cc(OC)nc(OC(C(=O)O)C(OC)(c2ccccc2F)c2ccccc2F)n1 (centres undefined) [2-(4,6-Dimethoxy-pyrimidin-2-yloxy)-3,3-bis-(2-fluoro-phenyl)-3-methoxy-propionic acid] | 6000 nM
COc1cc(OC)nc(OC(C(=O)O)C(O)(c2ccccc2)c2ccccc2)n1 (centres undefined) [2-(4,6-Dimethoxy-pyrimidin-2-yloxy)-3-hydroxy-3,3-diphenyl-propionic acid] | 3500 nM
COc1cc(OC)nc(OC(C(=O)O)C(Oc2ccccc2)(c2ccccc2)c2ccccc2)n1 (centres undefined) [2-(4,6-Dimethoxy-pyrimidin-2-yloxy)-3-phenoxy-3,3-diphenyl-propionic acid] | 1500 nM
CCc1cc(C)nc(OC(C(=O)O)C(OC)(c2ccccc2)c2ccccc2)n1 (centres undefined) [2-(4-Ethyl-6-methyl-pyrimidin-2-yloxy)-3-methoxy-3,3-diphenyl-propionic acid] | 160 nM
